Source: PubChem BioAssay AID1963849 (Molecular Pharmacology Branch, DTP, NCI, 2024)

System: 299254-011-R-J1-PDC complex spheroid viability
Test: Anticancer human tumor 299254-011-R-J1-PDC patient-derived melanoma cell line growth inhibition [POLQ]
Conditions: for IC50: curve of first compound; for viability, T/C: stronger effect = lower value
Method in brief: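 Complex spheroid viability model combining PDC tumour cells with endothelial (HUVEC) and MSC stromal cells. Novobiocin, ART-558 or RP6685 were tested singly and in combination with standard and investigational anticancer drugs. Each was titrated in half-log steps from near clinical Cmax, or from 10 microM where Cmax was unknown.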

[1] = second compound 0.0316 µM, first compound 0.0316 µM
[2] = second compound 0.0316 µM, first compound 0.1 µM
[3] = second compound 0.0316 µM, first compound 0.316 µM
[4] = second compound 0.0316 µM, first compound 1 µM
[5] = second compound 0.0316 µM, first compound 3.16 µM
[6] = second compound 0.0316 µM, first compound 10 µM
[7] = second compound 0.1 µM, first compound 0.0316 µM
[8] = second compound 0.1 µM, first compound 0.1 µM
[9] = second compound 0.1 µM, first compound 0.316 µM
[10] = second compound 0.1 µM, first compound 1 µM
[11] = second compound 0.1 µM, first compound 3.16 µM
[12] = second compound 0.1 µM, first compound 10 µM
[13] = second compound 0.316 µM, first compound 0.0316 µM
[14] = second compound 0.316 µM, first compound 0.1 µM
[15] = second compound 0.316 µM, first compound 0.316 µM
[16] = second compound 0.316 µM, first compound 1 µM
[17] = second compound 0.316 µM, first compound 3.16 µM
[18] = second compound 0.316 µM, first compound 10 µM
[19] = second compound 1 µM, first compound 0.0316 µM
[20] = second compound 1 µM, first compound 0.1 µM
[21] = second compound 1 µM, first compound 0.316 µM
[22] = second compound 1 µM, first compound 1 µM
[23] = second compound 1 µM, first compound 3.16 µM
[24] = second compound 1 µM, first compound 10 µM
[25] = second compound 3.16 µM, first compound 0.0316 µM
[26] = second compound 3.16 µM, first compound 0.1 µM
[27] = second compound 3.16 µM, first compound 0.316 µM
[28] = second compound 3.16 µM, first compound 1 µM
[29] = second compound 3.16 µM, first compound 3.16 µM
[30] = second compound 3.16 µM, first compound 10 µM
[31] = second compound 10 µM, first compound 0.0316 µM
[32] = second compound 10 µM, first compound 0.1 µM
[33] = second compound 10 µM, first compound 0.316 µM
[34] = second compound 10 µM, first compound 1 µM
[35] = second compound 10 µM, first compound 3.16 µM
[36] = second compound 10 µM, first compound 10 µM
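Further: spheroids exposed to drugs for one week before measurement.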
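Wherever viability, T/C is given: percent viability relative to DMSO vehicle control taken as 100%.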

In the case of `Nc1ccn(C2OC(CO)C(O)C2(F)F)c(=O)n1` (stereo not drawn) + Cc1cccc(N(C)C(=O)C2C(O)CCN2c2nc(C)cc(C(F)(F)F)c2C#N)c1, the IC50 (second compound 0.0316 µM) is reported as 65.3 nM, the IC50 (second compound 0.1 µM) is reported as 73.7 nM and the IC50 (second compound 0.316 µM) is reported as 74.2 nM. The IC50 (second compound 1 µM) was 78.7 nM, the IC50 (second compound 3.16 µM) was 41.8 nM and the IC50 (second compound 10 µM) was 76.4 nM. It also gave a viability, T/C [1] of 66.5%, a viability, T/C [2] of 41.4% and a viability, T/C [3] of 31.7%. It also gave a viability, T/C [4] of 37.7%, a viability, T/C [5] of 40.8% and a viability, T/C [6] of 36.6%. For the same compound, the viability, T/C [7] was 66%, the viability, T/C [8] was 43.7% and the viability, T/C [9] was 46.8%. For the same compound, the viability, T/C [10] was 38%, the viability, T/C [11] was 42.8% and the viability, T/C [12] was 43.5%. It also gave a viability, T/C [13] of 70.5%, a viability, T/C [14] of 42.3% and a viability, T/C [15] of 41.2%. The viability, T/C [16] was 42%, the viability, T/C [17] was 35.2% and the viability, T/C [18] was 35.8%. It also gave a viability, T/C [19] of 76.9%, a viability, T/C [20] of 44.1% and a viability, T/C [21] of 33.5%. For the same compound, the viability, T/C [22] was 33.7%, the viability, T/C [23] was 49.9% and the viability, T/C [24] was 40.3%. For the same compound, the viability, T/C [25] was 59.1%, the viability, T/C [26] was 43% and the viability, T/C [27] was 37.1%. For the same compound, the viability, T/C [28] was 41.1%, the viability, T/C [29] was 42.5% and the viability, T/C [30] was 37.6%. The viability, T/C [31] was 72.8%, the viability, T/C [32] was 44.2% and the viability, T/C [33] was 34.1%. The viability, T/C [34] was 39.8%, the viability, T/C [35] was 32.9% and the viability, T/C [36] was 48.1%.

With `CC1COCCN1c1cc(-c2ccnn2C)c2ccnc(-c3ccn[nH]3)c2n1` (stereo not drawn) + COC1C(OC(N)=O)C(O)C(Oc2ccc3c(O)c(NC(=O)c4ccc(O)c(CC=C(C)C)c4)c(=O)oc3c2C)OC1(C)C the IC50 (second compound 0.0316 µM) was 216 nM, the IC50 (second compound 0.1 µM) was 232 nM and the IC50 (second compound 0.316 µM) was 236 nM. For the same compound, the IC50 (second compound 1 µM) was 242 nM, the IC50 (second compound 3.16 µM) was 236 nM and the IC50 (second compound 10 µM) was 295 nM. It also gave a viability, T/C [1] of 104%, a viability, T/C [2] of 71.6% and a viability, T/C [3] of 39%. It also gave a viability, T/C [4] of 28.6%, a viability, T/C [5] of 36.5% and a viability, T/C [6] of 19.8%. The viability, T/C [7] was 106%, the viability, T/C [8] was 69.5% and the viability, T/C [9] was 43%. The viability, T/C [10] was 27%, the viability, T/C [11] was 36.9% and the viability, T/C [12] was 18.8%. For the same compound, the viability, T/C [13] was 88.8%, the viability, T/C [14] was 63.6% and the viability, T/C [15] was 46.7%. The viability, T/C [16] was 28.9%, the viability, T/C [17] was 31.3% and the viability, T/C [18] was 18.9%. It also gave a viability, T/C [19] of 92.4%, a viability, T/C [20] of 72.2% and a viability, T/C [21] of 43.2%. The viability, T/C [22] was 26.9%, the viability, T/C [23] was 38.4% and the viability, T/C [24] was 16.6%. The viability, T/C [25] was 94.6%, the viability, T/C [26] was 75% and the viability, T/C [27] was 42%. For the same compound, the viability, T/C [28] was 26.5%, the viability, T/C [29] was 35.9% and the viability, T/C [30] was 22.7%. It also gave a viability, T/C [31] of 102%, a viability, T/C [32] of 82.1% and a viability, T/C [33] of 47.9%. For the same compound, the viability, T/C [34] was 30.6%, the viability, T/C [35] was 41.7% and the viability, T/C [36] was 20%.

`COc1cccc(OCCCN)c1-c1cc(Nc2cnc(C#N)cn2)n[nH]1` + Cc1cccc(N(C)C(=O)C2C(O)CCN2c2nc(C)cc(C(F)(F)F)c2C#N)c1 showed an IC50 (second compound 0.0316 µM) of 188 nM, an IC50 (second compound 0.1 µM) of 136 nM and an IC50 (second compound 0.316 µM) of 95.4 nM. The IC50 (second compound 1 µM) was 207 nM, the IC50 (second compound 3.16 µM) was 105 nM and the IC50 (second compound 10 µM) was 112 nM. For the same compound, the viability, T/C (second compound 0.0316 µM, first compound 0.00316 µM) was 99.2%, the viability, T/C (second compound 0.0316 µM, first compound 0.01 µM) was 108% and the viability, T/C [1] was 71.2%. The viability, T/C [2] was 64.1%, the viability, T/C [3] was 39.6% and the viability, T/C [4] was 42%. The viability, T/C (second compound 0.1 µM, first compound 0.00316 µM) was 92.7%, the viability, T/C (second compound 0.1 µM, first compound 0.01 µM) was 104% and the viability, T/C [7] was 75.6%. The viability, T/C [8] was 53.7%, the viability, T/C [9] was 49% and the viability, T/C [10] was 38.2%. The viability, T/C (second compound 0.316 µM, first compound 0.00316 µM) was 100%, the viability, T/C (second compound 0.316 µM, first compound 0.01 µM) was 106% and the viability, T/C [13] was 74.7%. The viability, T/C [14] was 52%, the viability, T/C [15] was 49.2% and the viability, T/C [16] was 45.6%. For the same compound, the viability, T/C (second compound 1 µM, first compound 0.00316 µM) was 90.6%, the viability, T/C (second compound 1 µM, first compound 0.01 µM) was 103% and the viability, T/C [19] was 71.1%. It also gave a viability, T/C [20] of 65.9%, a viability, T/C [21] of 40.6% and a viability, T/C [22] of 38.9%. It also gave a viability, T/C (second compound 3.16 µM, first compound 0.00316 µM) of 120%, a viability, T/C (second compound 3.16 µM, first compound 0.01 µM) of 107% and a viability, T/C [25] of 72.3%. The viability, T/C [26] was 52.2%, the viability, T/C [27] was 41% and the viability, T/C [28] was 33.9%. For the same compound, the viability, T/C (second compound 10 µM, first compound 0.00316 µM) was 103%, the viability, T/C (second compound 10 µM, first compound 0.01 µM) was 85.1% and the viability, T/C [31] was 64.8%. It also gave a viability, T/C [32] of 54.1%, a viability, T/C [33] of 37.8% and a viability, T/C [34] of 39.8%.

Compound `COc1ccc([C@@H](O)c2cc(-c3ncnc4cc(N5CCOCC5)ccc34)c(F)cc2Cl)nn1` + Cc1cccc(N(C)C(=O)C2C(O)CCN2c2nc(C)cc(C(F)(F)F)c2C#N)c1 has an IC50 (second compound 0.0316 µM) of over 10000 nM, an IC50 (second compound 0.1 µM) of over 10000 nM and an IC50 (second compound 0.316 µM) of 8360 nM. It also gave an IC50 (second compound 1 µM) of 8800 nM, an IC50 (second compound 3.16 µM) of 6800 nM and an IC50 (second compound 10 µM) of 5750 nM. For the same compound, the viability, T/C [1] was 105%, the viability, T/C [2] was 102% and the viability, T/C [3] was 96.7%. The viability, T/C [4] was 99%, the viability, T/C [5] was 87.9% and the viability, T/C [6] was 49.6%. The viability, T/C [7] was 90.1%, the viability, T/C [8] was 89.2% and the viability, T/C [9] was 112%. It also gave a viability, T/C [10] of 92.5%, a viability, T/C [11] of 95.9% and a viability, T/C [12] of 53.4%. The viability, T/C [13] was 101%, the viability, T/C [14] was 108% and the viability, T/C [15] was 97.9%. The viability, T/C [16] was 86.2%, the viability, T/C [17] was 82.1% and the viability, T/C [18] was 43.6%. For the same compound, the viability, T/C [19] was 108%, the viability, T/C [20] was 97.6% and the viability, T/C [21] was 104%. For the same compound, the viability, T/C [22] was 111%, the viability, T/C [23] was 82.6% and the viability, T/C [24] was 46%. It also gave a viability, T/C [25] of 102%, a viability, T/C [26] of 102% and a viability, T/C [27] of 100%. For the same compound, the viability, T/C [28] was 90.2%, the viability, T/C [29] was 77.8% and the viability, T/C [30] was 36.5%. The viability, T/C [31] was 94.6%, the viability, T/C [32] was 82.8% and the viability, T/C [33] was 109%. It also gave a viability, T/C [34] of 88.5%, a viability, T/C [35] of 66% and a viability, T/C [36] of 35.3%.
